# Bridge positions count the residues as written; N and C are the ends. Square brackets hold non-standard residues; d marks the D form. Peptide text beside a SMILES is read from it. * marks the point of attachment. X1 = CC[C@H](C)CCCCC(=O)*; Dab = NCC[C@H](N)C(=O)O
# What was measured:
# Enterococcus faecalis = assay: Antimicrobial activity against multi-drug resistant Enterococcus faecalis assessed as reduction in bacterial growth by broth dilution method; assay type: functional
# Klebsiella pneumoniae = assay: Antimicrobial activity against multi-drug resistant Klebsiella pneumoniae assessed as reduction in bacterial growth by broth dilution method; assay type: functional
# Escherichia coli [1] = assay: Antimicrobial activity against multi-drug resistant Escherichia coli assessed as reduction in bacterial growth by broth dilution method; assay type: functional
# [2] = Hemolytic activity in human Red blood cell assessed as hemolysis incubated for 1 hrs by microplate reader based analysis; assay type: toxicity; details: erythrocyte
# Staphylococcus aureus [3] = assay: Antimicrobial activity against multi-drug resistant Staphylococcus aureus assessed as reduction in bacterial growth by broth dilution method; assay type: functional
# [4] = test system: Staphylococcus epidermidis; assay: Antimicrobial activity against multi-drug resistant Staphylococcus epidermidis assessed as reduction in bacterial growth by broth dilution method; assay type: functional
# Acinetobacter baumannii = assay: Antimicrobial activity against multi-drug resistant Acinetobacter baumannii assessed as reduction in bacterial growth by broth dilution method; assay type: functional
# Escherichia coli [5] = assay: Antimicrobial activity against Escherichia coli ATCC 25922 assessed as reduction in bacterial growth by broth dilution method; assay type: functional
# Staphylococcus aureus [6] = assay: Antimicrobial activity against Staphylococcus aureus ATCC 25923 assessed as reduction in bacterial growth by broth dilution method; assay type: functional
# HEK-293T = assay: Cytotoxicity against HEK293T cells at 2 to 256 uM measured after 24 hrs by CCK-8 method; assay type: toxicity, cell-based; details: human, dose 2-256 µM
# L02 = assay: Cytotoxicity against human LO2 cells at 2 to 256 uM measured after 24 hrs by CCK-8 method; assay type: toxicity, cell-based; details: l02, 24 h, dose 2-256 µM
# BEAS-2B = assay: Cytotoxicity against human BEAS-2B cells at 2 to 256 uM measured after 24 hrs by CCK-8 method; assay type: toxicity, cell-based; details: dose 2-256 µM
Compound,MIC (Enterococcus faecalis),MIC (Klebsiella pneumoniae),MIC (Escherichia coli [1]),HC10 [2],MIC (Staphylococcus aureus [3]),MIC [4],MIC (Acinetobacter baumannii),MIC (Escherichia coli [5]),MIC (Staphylococcus aureus [6]),Activity (HEK-293T),Activity (L02),Activity (BEAS-2B)
CC[C@H](C)[C@H](NC(=O)[C@H](CCCCN)NC(=O)[C@@H](NC(=O)[C@H](CCCCN)NC(=O)[C@@H](NC(=O)[C@@H]1CCCN1C(=O)[C@H](Cc1c[nH]c2ccccc12)NC(=O)[C@H](Cc1c[nH]c2ccccc12)NC(=O)[C@H](Cc1c[nH]c2ccccc12)NC(=O)[C@@H]1CCCN1C(=O)[C@@H](NC(=O)[C@H](CCCCN)NC(=O)[C@@H](NC(=O)[C@H](CCCCN)NC(=O)[C@@H](NC(=O)[C@@H](N)CCCCN)[C@@H](C)CC)[C@@H](C)CC)[C@@H](C)CC)[C@@H](C)CC)[C@@H](C)CC)C(=O)N[C@@H](CCCCN)C(N)=O (H-KIKIKIPWWWPIKIKIK-NH2),8 µM,16 µM,16 µM,33.38 µM,8 µM,8 µM,64 µM,16 µM,4 µM,,,
CC[C@H](C)[C@H](NC(=O)[C@H](CCCCN)NC(=O)[C@@H](NC(=O)[C@@H]1CCCN1C(=O)[C@H](Cc1c[nH]c2ccccc12)NC(=O)[C@H](Cc1c[nH]c2ccccc12)NC(=O)[C@H](Cc1c[nH]c2ccccc12)NC(=O)[C@@H]1CCCN1C(=O)[C@@H](NC(=O)[C@H](CCCCN)NC(=O)[C@@H](NC(=O)[C@@H](N)CCCCN)[C@@H](C)CC)[C@@H](C)CC)[C@@H](C)CC)C(=O)N[C@@H](CCCCN)C(N)=O (H-KIKIPWWWPIKIK-NH2),8 µM,32 µM,8 µM,> 256 µM,4 µM,16 µM,16 µM,8 µM,4 µM,,,
CC(C)C[C@H](NC(=O)[C@H](CCCCN)NC(=O)[C@H](CC(C)C)NC(=O)[C@H](CCCCN)NC(=O)[C@H](Cc1ccccc1)NC(=O)[C@@H]1CCCN1C(=O)[C@H](Cc1c[nH]c2ccccc12)NC(=O)[C@H](Cc1c[nH]c2ccccc12)NC(=O)[C@H](Cc1c[nH]c2ccccc12)NC(=O)[C@@H]1CCCN1C(=O)[C@H](Cc1ccccc1)NC(=O)[C@H](CCCCN)NC(=O)[C@H](CC(C)C)NC(=O)[C@H](CCCCN)NC(=O)[C@H](CC(C)C)NC(=O)[C@@H](N)CCCCN)C(=O)N[C@@H](CCCCN)C(N)=O (H-KLKLKFPWWWPFKLKLK-NH2),8 µM,8 µM,8 µM,38.84 µM,4 µM,4 µM,8 µM,8 µM,8 µM,,,
CC(C)[C@H](NC(=O)[C@H](CCCCN)NC(=O)[C@@H](NC(=O)[C@H](CCCCN)NC(=O)[C@@H]1CCCN1C(=O)[C@H](Cc1c[nH]c2ccccc12)NC(=O)[C@H](Cc1c[nH]c2ccccc12)NC(=O)[C@H](Cc1c[nH]c2ccccc12)NC(=O)[C@@H]1CCCN1C(=O)[C@H](CCCCN)NC(=O)[C@@H](NC(=O)[C@H](CCCCN)NC(=O)[C@@H](NC(=O)[C@@H](N)CCCCN)C(C)C)C(C)C)C(C)C)C(=O)N[C@@H](CCCCN)C(N)=O (H-KVKVKPWWWPKVKVK-NH2),32 µM,32 µM,32 µM,> 256 µM,64 µM,32 µM,64 µM,32 µM,64 µM,,,
NCCCC[C@H](NC(=O)[C@H](Cc1c[nH]c2ccccc12)NC(=O)[C@H](CCCCN)NC(=O)[C@H](Cc1c[nH]c2ccccc12)NC(=O)[C@H](Cc1ccccc1)NC(=O)[C@@H]1CCCN1C(=O)[C@H](Cc1c[nH]c2ccccc12)NC(=O)[C@H](Cc1c[nH]c2ccccc12)NC(=O)[C@H](Cc1c[nH]c2ccccc12)NC(=O)[C@@H]1CCCN1C(=O)[C@H](Cc1ccccc1)NC(=O)[C@H](Cc1c[nH]c2ccccc12)NC(=O)[C@H](CCCCN)NC(=O)[C@H](Cc1c[nH]c2ccccc12)NC(=O)[C@@H](N)CCCCN)C(N)=O (H-KWKWFPWWWPFWKWK-NH2),16 µM,256 µM,64 µM,7.46 µM,4 µM,16 µM,64 µM,32 µM,4 µM,,,
NCCCC[C@H](NC(=O)[C@H](Cc1c[nH]c2ccccc12)NC(=O)[C@H](CCCCN)NC(=O)[C@H](Cc1c[nH]c2ccccc12)NC(=O)[C@H](CCCCN)NC(=O)[C@H](Cc1ccccc1)NC(=O)[C@@H]1CCCN1C(=O)[C@H](Cc1c[nH]c2ccccc12)NC(=O)[C@H](Cc1c[nH]c2ccccc12)NC(=O)[C@H](Cc1c[nH]c2ccccc12)NC(=O)[C@@H]1CCCN1C(=O)[C@H](Cc1ccccc1)NC(=O)[C@H](CCCCN)NC(=O)[C@H](Cc1c[nH]c2ccccc12)NC(=O)[C@H](CCCCN)NC(=O)[C@H](Cc1c[nH]c2ccccc12)NC(=O)[C@@H](N)CCCCN)C(N)=O (H-KWKWKFPWWWPFKWKWK-NH2),8 µM,8 µM,4 µM,2.1 µM,8 µM,8 µM,8 µM,8 µM,4 µM,,,
NCCCC[C@H](NC(=O)[C@H](Cc1c[nH]c2ccccc12)NC(=O)[C@H](CCCCN)NC(=O)[C@H](Cc1c[nH]c2ccccc12)NC(=O)[C@H](CCCCN)NC(=O)[C@@H]1CCCN1C(=O)[C@H](Cc1c[nH]c2ccccc12)NC(=O)[C@H](Cc1c[nH]c2ccccc12)NC(=O)[C@H](Cc1c[nH]c2ccccc12)NC(=O)[C@@H]1CCCN1C(=O)[C@H](CCCCN)NC(=O)[C@H](Cc1c[nH]c2ccccc12)NC(=O)[C@H](CCCCN)NC(=O)[C@H](Cc1c[nH]c2ccccc12)NC(=O)[C@@H](N)CCCCN)C(N)=O (H-KWKWKPWWWPKWKWK-NH2),4 µM,4 µM,4 µM,64.03 µM,4 µM,4 µM,4 µM,4 µM,4 µM,,,
NCCCC[C@H](NC(=O)[C@H](Cc1c[nH]c2ccccc12)NC(=O)[C@H](CCCCN)NC(=O)[C@H](Cc1c[nH]c2ccccc12)NC(=O)[C@@H]1CCCN1C(=O)[C@H](Cc1c[nH]c2ccccc12)NC(=O)[C@H](Cc1c[nH]c2ccccc12)NC(=O)[C@H](Cc1c[nH]c2ccccc12)NC(=O)[C@@H]1CCCN1C(=O)[C@H](Cc1c[nH]c2ccccc12)NC(=O)[C@H](CCCCN)NC(=O)[C@H](Cc1c[nH]c2ccccc12)NC(=O)[C@@H](N)CCCCN)C(N)=O (H-KWKWPWWWPWKWK-NH2),2 µM,16 µM,4 µM,10.37 µM,2 µM,2 µM,4 µM,8 µM,2 µM,,,
NCCCC[C@H](NC(=O)[C@H](Cc1c[nH]c2ccccc12)NC(=O)[C@H](CCCCN)NC(=O)[C@H](Cc1ccccc1)NC(=O)[C@@H]1CCCN1C(=O)[C@H](Cc1c[nH]c2ccccc12)NC(=O)[C@H](Cc1c[nH]c2ccccc12)NC(=O)[C@H](Cc1c[nH]c2ccccc12)NC(=O)[C@@H]1CCCN1C(=O)[C@H](Cc1ccccc1)NC(=O)[C@H](CCCCN)NC(=O)[C@H](Cc1c[nH]c2ccccc12)NC(=O)[C@H](CCCCN)NC(=O)[C@@H](N)Cc1c[nH]c2ccccc12)C(=O)N[C@@H](Cc1c[nH]c2ccccc12)C(N)=O (H-WKWKFPWWWPFKWKW-NH2),16 µM,256 µM,128 µM,6.82 µM,16 µM,16 µM,16 µM,128 µM,8 µM,,,
NCCCC[C@H](NC(=O)[C@H](Cc1c[nH]c2ccccc12)NC(=O)[C@H](CCCCN)NC(=O)[C@@H]1CCCN1C(=O)[C@H](Cc1c[nH]c2ccccc12)NC(=O)[C@H](Cc1c[nH]c2ccccc12)NC(=O)[C@H](Cc1c[nH]c2ccccc12)NC(=O)[C@@H]1CCCN1C(=O)[C@H](CCCCN)NC(=O)[C@H](Cc1c[nH]c2ccccc12)NC(=O)[C@H](CCCCN)NC(=O)[C@@H](N)Cc1c[nH]c2ccccc12)C(=O)N[C@@H](Cc1c[nH]c2ccccc12)C(N)=O (H-WKWKPWWWPKWKW-NH2),2 µM,8 µM,8 µM,28.58 µM,4 µM,2 µM,8 µM,8 µM,4 µM,,,
CC(C)CCCCC(=O)N[C@@H](CCN)C(=O)N[C@H](C(=O)N[C@@H](CCN)C(=O)N[C@H]1CCNC(=O)[C@H]([C@@H](C)O)NC(=O)[C@H](CCN)NC(=O)[C@H](CCN)NC(=O)[C@H](CC(C)C)NC(=O)[C@@H](Cc2ccccc2)NC(=O)[C@H](CCN)NC1=O)[C@@H](C)O.CC[C@H](C)CCCCC(=O)N[C@@H](CCN)C(=O)N[C@H](C(=O)N[C@@H](CCN)C(=O)N[C@H]1CCNC(=O)[C@H]([C@@H](C)O)NC(=O)[C@H](CCN)NC(=O)[C@H](CCN)NC(=O)[C@H](CC(C)C)NC(=O)[C@@H](Cc2ccccc2)NC(=O)[C@H](CCN)NC1=O)[C@@H](C)O (X1-[Dab]T[Dab][Dab][Dab][dF]L[Dab][Dab]T; lactam 4-C),,,,> 256 µM,,,,,,Non-toxic,Non-toxic,Non-toxic

# From ChEMBL document CHEMBL6134890, “Terminally Symmetric β-Turn Peptides for Multidrug-Resistant Bacterial Infections” (J Med Chem, 2025)
